For one test, the system named is HMLER-shEcad cells. The test can be described thus: HMLER-shEcad viability with co-incubated necroptosis/apoptosis inhibitors. It counts as cell-based, human. The following applies: 20 μM necrostatin-1 or 5 μM z-VAD-FMK (FIG. 9C, 9D).
In test [1] the test system is HMLER-shEcad (human breast cancer stem cell). Nature of the test: cells. The following applies: 72 h. A digest of the protocol:
(§1)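 MTT viability after 72 h exposure to 0–100 μM compound (final DMSO 0.5% or 0%), 5×10^3 cells/well; HMLER lines and MCF-10A in MEGM, U2OS in DMEM with 10% FBS. A550 normalized to matching vehicle controls; IC50 interpolated from dose–response curves.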

Test [2] deals with HEK293T (human embryonic kidney cell). The test can be described thus: cells. Conditions: 72 h.
In test [3] the test system is HMLER (human breast cancer bulk cell). Nature of the test: cells. The following applies: 72 h. A digest of the protocol: as §1
Test [4] deals with MCF-10A (human breast epithelial cell). Nature of the test: cells. The following applies: 72 h. A digest of the protocol:
as §1

Test [5] can be described thus: Tryptophan fluorescent binding assay, POPC vesicles. The following applies: 50 μM peptide, PBS pH 7.4, lipid per peptide. A digest of the protocol:
(§2)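 Binding followed by tryptophan emission (300-450 nm, 280 nm excitation, 3 scans averaged) after 60 min incubation of 50 μM peptide with 0-5000 μM extruded 100 nm POPC or 3:1 POPC/POPG vesicles in PBS pH 7.4. Value: lipid-to-peptide ratio at half-maximal binding.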

Test [6] is described as follows: Tryptophan fluorescent binding assay, 3POPC/1POPG vesicles. The following applies: 50 μM peptide, PBS pH 7.4, lipid per peptide. The method, boiled down: as §2
Test [7] in a line: ANTS/DPX liposome leakage assay, 3POPC/1POPG vesicles. Conditions: for Peptide Concentration-induced 50% ANTS/DPX leakage at pH 4.8, 3POPC/1POPG Vesicle / Peptide Concentration-induced 50% ANTS/DPX leakage at pH 7.4, 3POPC/1POPG Vesicle: 0.5 mM vesicles; for Peptide Concentration-induced 50% ANTS/DPX leakage at pH 4.8, 3POPC/1POPG Vesicle: pH 4.8, lipid per peptide; for Peptide Concentration-induced 50% ANTS/DPX leakage at pH 7.4, 3POPC/1POPG Vesicle: pH 7.4, lipid per peptide. It is filed as biochemical. The method, boiled down:
(§3)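 Peptide titrations (0–20 μM) were incubated 3 h with 0.5 mM ANTS/DPX-loaded 100 nm vesicles, either POPC alone or 3:1 POPC/POPG, at pH 7.4 or pH 4.8 in PBS. ANTS fluorescence (350/510 nm) normalized to Triton-lysed vesicles; 50%-leakage values given as lipid:peptide ratio.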

The subject of test [8] is U2OS (human bone osteosarcoma). Conditions: 72 h. The method, boiled down: as §1
Test [9] can be described thus: ANTS/DPX liposome leakage assay, POPC vesicles. Conditions: 0.5 mM vesicles; for Peptide Concentration-induced 50% ANTS/DPX leakage at pH 4.8, POPC Vesicle: pH 4.8, lipid per peptide; for Peptide Concentration-induced 50% ANTS/DPX leakage at pH 7.4, POPC Vesicle: pH 7.4, lipid per peptide. It is filed as biochemical. A digest of the protocol:
as §3

For test [10], the system named is HMLER-shEcad mammospheres. Nature of the test: Tumoursphere formation and viability assay (TOX8). It counts as cell-based, human. The following applies: HMLER-shEcad 2D IC50 versus mammosphere IC50.

Structures are written as SMILES.

`CC(C)C[C@@H](NC(=O)CN)C(=O)N[C@H](CC(C)C)C(=O)N[C@H](CCC(=O)O)C(=O)N[C@H](CC(C)C)C(=O)N[C@H](CC(C)C)C(=O)N[C@H](CCC(=O)O)C(=O)N[C@H](CC(C)C)C(=O)N[C@H](CC(C)C)C(=O)N[C@H](CC(C)C)C(=O)N[C@H](CCCCN)C(=O)N[C@H](C)C(=O)N[C@H](C)C(=O)NCC(=O)N[C@H](Cc1c[nH]c2ccccc12)C(N)=O` [D-form EEK]: the “cell viability on co-incubation with necrostatin or z-VAD-FMK” value in the test with HMLER-shEcad cells is recorded as “cannot be improved”.

Turning to `CC(C)C[C@H](NC(=O)CN)C(=O)N[C@@H](CC(C)C)C(=O)N[C@@H](CC(=O)O)C(=O)N[C@@H](CC(C)C)C(=O)N[C@@H](CC(C)C)C(=O)N[C@@H](CCC(=O)O)C(=O)N[C@@H](CC(C)C)C(=O)N[C@@H](CC(C)C)C(=O)N[C@@H](CC(C)C)C(=O)N[C@@H](CCCCN)C(=O)N[C@@H](C)C(=O)N[C@@H](C)C(=O)NCC(=O)N[C@@H](Cc1c[nH]c2ccccc12)C(N)=O` [DEK], the IC50 (as a rule, the point on the concentration scale where inhibition reaches its midpoint) was 0.7 ± 0.07 µM in test [1]; 6.8 ± 0.85 µM in [2]; 1.14 ± 0.52 µM in test [3]; no less than 100 µM in test [4]; 19.9 ± 2.65 µM in [8]. Also, in test [5], the “Lipid Concentration-induced 50% Peptide Binding, POPC Vesicle” value is reported as 1.50 L/P. Besides, the “Lipid Concentration-induced 50% Peptide Binding, 3POPC/1POPG Vesicle” value in [6] is 1.67 L/P. The “Peptide Concentration-induced 50% ANTS/DPX leakage at pH 4.8, 3POPC/1POPG Vesicle” value in test [7] turned out to be 469 L/P. The “Peptide Concentration-induced 50% ANTS/DPX leakage at pH 7.4, 3POPC/1POPG Vesicle” value in [7] amounted to 773 L/P. Further, the “liposome leakage activity from anionic vesicle at pH 4.8 (in words)” value in [7] (anionic versus zwitterionic vesicle, pH 4.8) was “relatively higher liposome leakage activity”. The “Peptide Concentration-induced 50% ANTS/DPX leakage at pH 4.8, POPC Vesicle” value in test [9] turned out to be 10 L/P. For the same molecule, the “Peptide Concentration-induced 50% ANTS/DPX leakage at pH 7.4, POPC Vesicle” value in test [9] turned out to be 747 L/P.

For `COc1cccc2c1C(=O)c1c(O)c3c(c(O)c1C2=O)C[C@@](O)(C(=O)CO)C[C@@H]3O[C@H]1C[C@H](N)[C@H](O)[C@H](C)O1` [Doxorubicin, doxorubicin, reference compound], the “decrease in activity, two-dimensional versus mammospheres” value in test [10] was 1,700 fold. In the test on HMLER-shEcad cells, the “cell viability on co-incubation with necrostatin or z-VAD-FMK” value is “can be dramatically improved”.

In the case of `CC(C)C[C@H](NC(=O)CN)C(=O)N[C@@H](CC(C)C)C(=O)N[C@@H](CCC(=O)O)C(=O)N[C@@H](CC(C)C)C(=O)N[C@@H](CC(C)C)C(=O)N[C@@H](CCC(=O)O)C(=O)N[C@@H](CC(C)C)C(=O)N[C@@H](CC(C)C)C(=O)N[C@@H](CC(C)C)C(=O)N[C@@H](CCC(=O)O)C(=O)N[C@@H](C)C(=O)N[C@@H](C)C(=O)NCC(=O)N[C@@H](Cc1c[nH]c2ccccc12)C(N)=O` [EEE], the IC50 in test [1] was 10.6 ± 3.46 µM; in test [2], 50 µM; in [3], 6.25 ± 1.77 µM; in [4], no less than 100 µM; in test [8], 78.8 ± 5.3 µM. Besides, the “Lipid Concentration-induced 50% Peptide Binding, POPC Vesicle” value in [5] turned out to be 1.33 L/P. Also, in test [6], the “Lipid Concentration-induced 50% Peptide Binding, 3POPC/1POPG Vesicle” value is 4.50 L/P. In test [7], the “Peptide Concentration-induced 50% ANTS/DPX leakage at pH 4.8, 3POPC/1POPG Vesicle” value was found to be 28 L/P. In addition, in [7], the “Peptide Concentration-induced 50% ANTS/DPX leakage at pH 7.4, 3POPC/1POPG Vesicle” value is recorded as 346 L/P. Besides, in test [9], the “Peptide Concentration-induced 50% ANTS/DPX leakage at pH 4.8, POPC Vesicle” value amounted to 35 L/P. In addition, the “Peptide Concentration-induced 50% ANTS/DPX leakage at pH 7.4, POPC Vesicle” value in [9] is listed as 143 L/P.

The values are drawn from patent publication US20250326794A1, “ANTI-CANCER LEUCINE-RICH PEPTIDES AND USES THEREOF” (KING'S COLLEGE LONDON, priority 2019, published 2025).
